Data from US7816374B2, “Method of treating neutrophil-related diseases with topical anesthetics” (Mayo Foundation for Medical Education and Research, priority 2000, dated 2010).
Values joined by “and” are separate entries in the source; they are usually repeats but may differ in a detail not shown here. Equal entries are not always repeated. “Also recorded” adds a separate entry of the source.

Columns and labels:
neutrophils [1] = test: Neutrophil extracellular superoxide production (cytochrome c reduction plate assay); type: cell-based, human; settings: for stimulation of neutrophils to release extracellular superoxide: stimulus screen, G-CSF 5 ug/mL, IFN-γ 100 ng/mL, 1 ug/mL, IL-8 0.5, 1 and 10 ng/mL, LTB4 100 nM and 1 uM
Experimental: Neutrophils were purified from heparinized venous blood of normal volunteers by sedimentation through a cushion of 1.085 gm/ml Percoll made in PIPES buffer, pH 7.4, supplemented with 50 mM NaCl, 5 mM KCl, 25 mM NaOH, and 5.4 mM glucose) and centrifuged at 2,000 rmp in a Beckman CS-6KR centrifuge for 30 minutes with no brake. Plasma, mononuclear cells, and Percoll layers were removed and the erythrocytes were lysed by osmotic shock.
The superoxide production was measured using cytochrome c reduction in a plate assay at a concentration of 50,000 neutrophils/well and was done in duplicate.
(§1) Neutrophils were isolated in a Percoll gradient to remove PBMC.
The extracellular superoxide assay (Cytochrome C method) was performed as follows: 1) The wells of a 96-well plate were blocked with 50 ul of 1% HSA for at least 2 hours at 37° C. 2) The Cytochrome C mix (#C-2506, Sigma, St. Louis, Mo.) was prepared as follows: 2.4 mgs of Cytochrome C was resuspended in 1 mL HBSS/HEPES (pH 7.4). One mL of CytoC mix was required for every 0.5×10^6 cells used in the assay. 3) The blocked cells of the 96 well plate were washed twice with 200 μL saline. 4) 4× stimulus and inhibitor stocks were prepared HBSS/HEPES. The cells were resuspended in CytoC mix to 0.5×10^6 cells/mL and kept on ice until ready for use. 5) The final volume in all wells was 200 μL: 100 μl cell/CytoC mix suspension per well (0.05×10^6 cells/well); 50 μL stimulus (if present) per well and 50 μL inhibitor (if present) per well. If stimulus and/or inhibitor was not required for a well, the volume was made up with HBSS/HEPES so that the total volume in the well was 200 μL. 6) Stimuli, inhibitors and cells were added to the wells in the following order: 1) media filler; 2) inhibitors; 3) cells; and 4) stimuli. 7) The 96 well plate was placed in a ThermoMax plate reader and the OD550 was read at 37° C. The plate was read at time 0 and then every 10 minutes for 1 hour, then every 30 minutes for 3 hours. 8) The concentration of superoxide released was calculated by using the following formula to calculate the nmol of Cytochrome C reduced: 19.1*[OD550(time x)−OD550(time 0)]/0.05=nmol Cytochrome C reduced per 1×10^6 cells=nmol superoxide released per 1×10^6 cells.

[2] = cited from earlier work
[3] = Serum concentration after lidocaine nebulization (PARI II device); type: in vivo, human; settings: nebulization of up to 375 mg over 10 minutes; four normal subjects and four asthma patients; >1 μg/ml in only one patient out of eight
Description: Scott, D. B. et al., Br J Anaesth. 48:899-902 (1976); Chinn, W. M. et al., Chest 71:346-348 (1977).

[4] = Clinical trial of nebulized lidocaine in severe asthma; type: in vivo, human; settings: twenty patients with severe asthma; 100 mg nebulized lidocaine x4 qd
neutrophils [5] = test: Lactoferrin release from stimulated neutrophils (ELISA); type: cell-based, human; settings: FIG. 7
Experimental: as §1
To measure lactoferrin, an ELSIA kit was purchased from Calbiochem (San Diego, Calif.) and the protocols and procedures were followed therein.
When neutrophils begin to invade injured tissue, feedback control of inflammation begins with degranulation of neutrophils and massive release of lactoferrin. The amount of lactoferrin released from neutrophils stimulated with PMA, TNF-α and PAF was measured.

neutrophils [6] = settings: in vitro, cited from earlier work
eosinophils = settings: in vitro; Okada et al. 1998; cited from earlier work
[7] = Patient with inflammatory bowel disease-associated severe bronchitis treated with nebulized lidocaine; type: in vivo, human; settings: nebulized lidocaine 100 mg four times daily; within six weeks; one patient
Experimental: A patient with inflammatory bowel disease-associated severe bronchitis who had symptoms of copious sputum production (in excess of 150 mi/day), daily cough and chest tightness, and shortness of breath on exertion, who had not responded to topical or systemic glucocorticoids and multiple rounds of antibiotics over an 18 month period was treated. Lamos, J. et al., Arch Internationales De Pharmacodynamie et de Therapie 331:179-188 (1996).

sputum neutrophilia = test: Sputum cell counts before and after four weeks of nebulized lidocaine in patients with chronic protracted post-viral or post-irritant cough; type: in vivo, human; parameters: wbc before / wbc after / eos before / eos after: unit not given here
Experimental: Yamamoto, C. et al., Chest 112:505-510 (1997); Peleman, R. A. et al., Eur. Resp. Journal 13:839-843 (1999); Gibson, P. G. et al., Thorax 44:693-699 (1989). Induction, collection, and processing of sputum is performed according to the method of Pin and Hargreave. Briefly, if the patient is unable to spontaneously produce a 5 cc sputum sample, sputum induction is performed using ultrasonically nebulized hypertonic saline administered in progressive 2 minute increments followed by attempts to cough and produce sputum. The nebulization continues until a total of 12 minutes have elapsed or the patient produces 5 cc of sputum. The initial specimen is collected in a 50 ml conical tube, vortexed and 1 cc of the sputum is aspirated and placed on ice for cytokine analysis. The remaining volume is weighed, and mixed with equal volumes of dithiothreitol, vortexed, then rocked for 15 min at 37° C. with frequent vortexing. The specimen is analyzed for total and differential cell counting.

[8] = Case report of patient with bronchitis treated with lidocaine inhalation; type: in vivo, human
Experimental: The patient was a person first seen in 1996 with a six month history of harsh cough affecting their both during the night and the day. Copious (about 50 ml per day), thick, yellow to white sputum was produced. They were often awakened at night with chest heaviness and dyspnea. […] When initially evaluated, the patient was receiving prednisone, 30 mg every other day, Salmeterol twice daily and Asthmacort four inhalations four times a day.

[9] = six patients, after four weeks of nebulized lidocaine

Molecule: IL-8: interleukin 8
- stimulation of neutrophils to release extracellular superoxide (neutrophils [1]): did not stimulate

Molecule: CCCCC/C=C\C[C@@H](O)/C=C/C=C/C=C\[C@@H](O)CCCC(=O)O [LTB4, leukotriene B4]
- stimulation of neutrophils to release extracellular superoxide (neutrophils [1]): did not stimulate

Molecule: IFN-γ: interferon gamma
- stimulation of neutrophils to release extracellular superoxide (neutrophils [1]): did not stimulate

Molecule: f-met-leu-phe [fMLP]
- stimulation of neutrophils to release extracellular superoxide (neutrophils [1]): stimulated

Molecule: CCN(CC)CC(=O)Nc1c(C)cccc1C [lidocaine, (2-diethylamino)-N-(2,6-dimethylphenyl)acetamide]
- systemic glucocorticoid use in steroid-dependent asthma ([2]; lidocaine inhalation, most adult and pediatric patients): reduces or eliminates systemic glucocorticoids
- topical glucocorticoid use in mild to moderate asthma ([2]; nebulized lidocaine): able to replace topical glucocorticoids
- peripheral blood eosinophils when topical glucocorticoids were withdrawn ([2]; nebulized lidocaine, mild to moderate asthma): prevented the rise
- serum concentration [3]: 1500 ng/mL
- patients able to discontinue or reduce the use of oral GC by 80% [4]: seventeen
- side effects [4]: minimal side effects
- lactoferrin release in PMA stimulated neutrophils (neutrophils [5]; PMA stimulus): may have an effect
- lactoferrin release in neutrophils stimulated with TNF (neutrophils [5]; TNF stimulus): significantly inhibits
- activation of neutrophils by G-CSF, TNF-α and GM-CSF (neutrophils [6]): inhibits activation
- neutrophil aggregation and degranulation (neutrophils [6]): Inhibition
- depolarization of neutrophil membrane potential, superoxide generation and chemiluminescence response in neutrophils (neutrophils [6]; concentration-dependent manner): inhibits
- TNF-α stimulated neutrophil superoxide anion production (neutrophils [1]; 3 mM lidocaine, TNF-alpha stimulus, 50,000 neutrophils/well): virtually totally suppresses; also recorded: almost totally inhibited
- C5a stimulated neutrophil superoxide anion production (neutrophils [1]; C5a stimulus, FIGS. 6A and 6B): suppresses
- stimulation of neutrophils (extracellular superoxide) by stimuli (neutrophils [1]; all stimuli with the exception of PMA): inhibits the stimulation of neutrophils in a dose dependent manner
- PMA induced neutrophil superoxide anion production (neutrophils [1]; lidocaine, PMA stimulus): does not alter this production; also recorded: not inhibited
- superoxide anion production by unstimulated neutrophils (neutrophils [1]; presence and absence of 3 mM lidocaine, no stimulus): no superoxide anion is produced
- cytokine-stimulated eosinophilopoesis and prolongation of survival, activation, respiratory burst, and degranulation of eosinophils (eosinophils): inhibit
- cough and chest tightness [7]: disappeared
- sputum volume [7]: diminished to zero
- cough (sputum neutrophilia; [9]): clearing of their cough
- sputum neutrophils (sputum neutrophilia; [9]): reduction of sputum neutrophils
- pmn after (sputum neutrophilia; sputum PMN of individual patients after four weeks of nebulized lidocaine): 568,400 and 352,000 and 617,760 and 79,900 and 1,612,800 and 551,200
- pmn before (sputum neutrophilia; sputum PMN of individual patients before lidocaine treatment (baseline)): 1,032,200 and 3,569,000 and 1,566,000 and 2,772,000 and 4,093,400 and 1,256,250
- wbc after (sputum neutrophilia; sputum WBC of individual patients after four weeks of nebulized lidocaine): 1,160,000 and 1,600,000 and 2,808,000 and 85,000 and 4,480,300 and 2,120,000
- wbc before (sputum neutrophilia; sputum WBC of individual patients before lidocaine treatment (baseline)): 3,330,000 and 6,050,000 and 2,700,000 and 4,760,000 and 2,512,500
- eos after (sputum neutrophilia; sputum eosinophils of individual patients after four weeks of nebulized lidocaine): 0 (2×) and 96,000 and 2,808 and 134,400 and 42,500
- eos before (sputum neutrophilia; sputum eosinophils of individual patients before lidocaine treatment (baseline)): 0 (3×) and 484,000 and 12,798 and 1,384,200
- patient-reported course on continued therapy ([8]; lidocaine by inhalation for the following year, occasional antibiotics): continued improvement
- sputum volume and cough ([8]; lidocaine by inhalation, over a span of three weeks, one patient): diminished strikingly

Molecule: CCCCCCCCCCCCCC(=O)O[C@@H]1[C@@H](C)[C@@]2(O)[C@@H](C=C(CO)C[C@]3(O)C(=O)C(C)=C[C@@H]23)[C@@H]2C(C)(C)[C@]12OC(C)=O [PMA, phorbol-myristate acetate]
- stimulation of neutrophils to release extracellular superoxide (neutrophils [1]): stimulated; also recorded: stimulates superoxide anion very considerably

Molecule: GM-CSF: granulocyte macrophage colony stimulating factor
- stimulation of neutrophils to release extracellular superoxide (neutrophils [1]): stimulated

Molecule: TNF-α
- stimulation of neutrophils to release extracellular superoxide (neutrophils [1]): stimulated; also recorded: considerable superoxide anion is released

B1: C5a: component of the complement system (protein, UniProt P01031 678-751, looked up)
C5a anaphylatoxin: TLQKKIEEIAAKYKHSVVKKCCYDGACVNNDETCEQRAARISLGPRCIKAFTECCVVASQLRANISHKDMQLGR
modifications: C5a anaphylatoxin
notes: component of the complement system
- stimulation of neutrophils to release extracellular superoxide (neutrophils [1]): stimulated; also recorded: stimulates superoxide anion production

B2: G-CSF: granulocyte colony stimulating factor (protein, UniProt P09919 31-207, looked up)
Granulocyte …: TPLGPASSLPQSFLLKCLEQVRKIQGDGAALQEKLVSECATYKLCHPEELVLLGHSLGIPWAPLSSCPSQALQLAGCLSQLHSGLFLYQGLLQALEGISPELGPTLDTLQLDVADFATTIWQQMEELGMAPALQPTQGAMPAFASAFQRRAGGVLVASHLQSFLEVSYRVLRHLAQP
- stimulation of neutrophils to release extracellular superoxide (neutrophils [1]): did not stimulate
